Results: publication PMC11832467, “Novel mitochondrial-targeted alkyl chains act as fungal specific inhibitors of C. neoformans” (Frontiers in Microbiology, 2025)
Read-outs that look alike come from different tables or passages of the source.

Tests used:
C. albicans Aox2 (rAox2) = biological target: T1, C. albicans Aox2 (rAox2) (Candida albicans, UniProt Q9UV71); assay: NADH oxidation at […] nm, E. coli membranes; type: biochemical
T1 sequence (Q9UV71 1-365): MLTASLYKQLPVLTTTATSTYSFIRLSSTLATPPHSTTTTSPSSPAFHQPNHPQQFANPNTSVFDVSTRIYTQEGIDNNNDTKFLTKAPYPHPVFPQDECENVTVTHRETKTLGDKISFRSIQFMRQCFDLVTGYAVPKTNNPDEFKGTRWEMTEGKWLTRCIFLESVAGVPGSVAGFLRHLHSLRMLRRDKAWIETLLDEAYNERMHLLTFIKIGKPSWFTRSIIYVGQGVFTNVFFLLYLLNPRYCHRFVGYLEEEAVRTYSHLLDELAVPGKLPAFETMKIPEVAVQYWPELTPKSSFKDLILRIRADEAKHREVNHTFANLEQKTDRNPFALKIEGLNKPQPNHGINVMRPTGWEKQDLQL

cytochrome bc1 complex = biological target: T2, cytochrome bc1 complex (Candida albicans, UniProt A0A1D8PJX3+P0C8L0); assay: cytochrome bc1 activity, dose response (assay not described); type: cell-based
T2 construct: gene COB; native multi-subunit complex III; preparation and assay not given; with Cytochrome c1, heme protein, mitochondrial
T2 sequence (P0C8L0 1-387): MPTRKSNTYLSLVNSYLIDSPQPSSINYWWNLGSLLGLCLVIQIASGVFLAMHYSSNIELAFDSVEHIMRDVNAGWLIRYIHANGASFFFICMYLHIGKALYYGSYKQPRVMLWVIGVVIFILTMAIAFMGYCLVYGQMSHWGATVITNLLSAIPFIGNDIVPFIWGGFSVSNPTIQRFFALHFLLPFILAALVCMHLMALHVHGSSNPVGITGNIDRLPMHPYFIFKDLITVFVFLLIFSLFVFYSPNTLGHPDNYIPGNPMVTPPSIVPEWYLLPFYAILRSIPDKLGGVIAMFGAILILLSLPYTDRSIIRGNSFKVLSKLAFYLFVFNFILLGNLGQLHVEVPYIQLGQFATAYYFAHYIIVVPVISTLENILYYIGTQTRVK
T2 sequence (A0A1D8PJX3 30-213): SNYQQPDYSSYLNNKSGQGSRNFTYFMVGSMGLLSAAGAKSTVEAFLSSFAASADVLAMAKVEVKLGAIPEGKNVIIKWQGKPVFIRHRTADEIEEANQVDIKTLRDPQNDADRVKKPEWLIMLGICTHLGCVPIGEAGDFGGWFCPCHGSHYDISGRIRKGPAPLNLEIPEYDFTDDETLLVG
T2 sequence (A0A1D8PHA3 43-288 partner): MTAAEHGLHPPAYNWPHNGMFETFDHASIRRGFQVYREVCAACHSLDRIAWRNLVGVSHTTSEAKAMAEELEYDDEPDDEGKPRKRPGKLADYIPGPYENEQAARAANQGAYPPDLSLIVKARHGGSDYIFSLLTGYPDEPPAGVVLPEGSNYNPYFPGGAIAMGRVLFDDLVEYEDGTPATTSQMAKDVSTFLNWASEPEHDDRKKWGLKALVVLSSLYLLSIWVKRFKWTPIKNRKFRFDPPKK
Excerpt: cytochrome bc1 activity, dose response (assay not described) on cytochrome bc1 complex

Compound | IC50 (C. albicans Aox2 (rAox2)) [µM] | IC50 (cytochrome bc1 complex) [µM] | IC50 (C. albicans Aox2 (rAox2); NADH, 65 mM MOPS pH 7.5, 1 mM KCN, 10 mM GMP, 10 min preincubation) [µM]
CC(C)=CCC/C(C)=C/Cc1c(O)c(Cl)c(C)c(C=O)c1O [Colletochlorin B] | 0.0073 ± 0.0024 | 1.1 ± 0.1 | –
Cc1c(Br)c(O)c(CCCCCCCCCCCC[P+](c2ccccc2)(c2ccccc2)c2ccccc2)c(O)c1C=O [ALTOX094, (12-(3-Bromo-5-formyl-2,6-dihydroxy-4-methylphenyl)dodecyl)triphenylphosphonium bromide] | – | 9.1 ± 1.2 | 15 ± 1
CC(C)=CCC/C(C)=C/Cc1c(O)c(Br)c(C)c(C=O)c1O [ISSF31, (E)-3-Bromo-5-(3,7-dimethylocta-2,6-dien-1-yl)-4,6-dihydroxy-2-methylbenzaldehyde] | 0.0211 ± 0.008 | 1.2 ± 0.6 | –
Cc1c(Br)c(O)c(CCCCCCCC[P+](c2ccccc2)(c2ccccc2)c2ccccc2)c(O)c1C=O [ALTOX102, (8-(3-Bromo-5-formyl-2,6-dihydroxy-4-methylphenyl)octyl)triphenylphosphonium bromide] | 11.1 ± 1 | 5.8 ± 1.4 | –
